One data set concerns GPX4 in MCF-7/ADR. Kind of data set: Western blot of GPX4. It is filed as cell-based, human. Conditions: after treatment of 9e. The protocol:
MCF-7/ADR (2 × 10^5 cells/well) were plated in 6-well plates. After 24 h treatment with 9e (20 nM), cell lysates were prepared using RIPA buffer (Beyotime, Shanghai, China; 30 min, ice), then centrifuged (12,000 rpm, 10 min, 4 °C) to harvest protein supernatants. Protein concentrations were measured by BCA assay (Beyotime, Shanghai, China). The supernatants were then loaded and transferred onto PVDF membranes (Millipore, Billerica, MA, USA) for western blot. The blots were developed with ECL chemiluminescent solution (Meilunbio, Dalian, China). Commercially purchased antibodies include P-gp (Abcam, Cambridge, UK; ab170904), Caspase 3 (Proteintech, Wuhan, China; 19677-1-AP), Bcl-2 (Servicebio, Wuhan, China; GB113375-100), LC3 (Abcam, Abcam, Cambridge, UK; ab192890), P62 (Cell Signaling Technology, Danvers, MA, USA; 5114 T), Beclin (ABclonal, Wuhan, China; A7353), GPX4 (ABclonal, Wuhan, China; A11243), LAMP1 (Cell Signaling Technology, Danvers, MA, USA;15,665 T), GAPDH (Servicebio, Wuhan, China; GB11002-100), and β-Actin (Servicebio, Wuhan, China;GB11001-100). The secondary antibodies conjugated with horseradish peroxidase (HRP) were from Abmart.

The next data set concerns LC3 in MCF-7/ADR. Kind of data set: LC3 immunofluorescence. In kind it is cell-based, human. Conditions: 9e 10 nM, 24 hours. As for the experimental part:
MCF-7/ADR (1 × 10^5 cells/dish) were seeded in confocal dishes and cultured overnight. After being treated with 9e (20 nM) for 24 h, cells were fixed with 4% paraformaldehyde (Servicebio, Wuhan, China) for 15 min at room temperature. Then, they were washed three times with PBS. Next, cells were blocked with a solution containing 3% BSA (Biofroxx, Einhausen, Germany) and 0.3% Triton X-100 (Beyotime, Shanghai, China) for 1 h at room temperature. The cells were incubated with the primary antibody, which was diluted in 3% BSA and 0.3% Triton X-100, overnight at 4 °C. After three washes with PBS, the cells were incubated with the fluorescent secondary antibody (Alexa Fluor 488 and Alexa Fluor 594, Bioss, Beijing, China) for 1 h at room temperature. Following another three washes with PBS, the cellular DNA was stained with Hoechst 33,342 dye (10 min, 37 °C).

In data set [1] the test system is HUVEC (human umbilical vein endothelial cell lines). The experiment in a line: Cytotoxicity screen in HUVEC. It is filed as cell-based. Conditions: 500 nM concentration. The text has this: The MDA-MB-468 cell line was procured from the Cell Bank of the Chinese Academy of Sciences. The MCF-7, MCF-7/ADR, MCF-10A, and MDA-MB-231 cell lines were kindly provided by Professor Xianyi Sha (Fudan University, Shanghai, China). The HUVEC cells were kindly provided by Associate Professor Hulie Zeng (Fudan University, Shanghai, China). The MDA-MB-468, MDA-MB-231, MCF-7, MCF-10A, and HUVEC cells were cultivated in DMEM (Service Biotechnology, China) supplemented with 10% FBS (Capricorn Scientific, Germany) and 1% penicillin-streptomycin (Meilunbio, Dalian, China). For the MCF-7/ADR cells, they were cultured in RPMI-1640 (Service Biotechnology, Wuhan, China), containing 10% FBS and 1% penicillin-streptomycin. Additionally, 500 ng/mL of doxorubicin (Sigma-Aldrich, Saint Louis, MO, USA) was incorporated into the RPMI-1640 culture medium to keep drug resistance. All cell lines were cultured in a humidified incubator at 37 °C with a 5% CO2 atmosphere.
Following harvest during logarithmic growth, cells were plated in 96-well culture plates at an initial density of 5000 cells per well. Incubate the plate overnight at 37 °C to allow the cells to adhere. […] The OD value at 570nm was measured using a microplate reader (Thermo Fisher, Waltham, MA, USA). Cell proliferation inhibition was determined using the following formula:Inhibition (%) = [(ODDMSO − ODcompd.)/(ODDMSO − ODblank)] × 100 […]

A further data set deals with MCF-7/ADR. The experiment in a line: Cell apoptosis analysis (Annexin V-FITC/PI flow cytometry). It is filed as cell-based, human. As to conditions: 9e 10 nM, control 5.53%. The protocol:
MCF-7/ADR (2 × 10^5 cells/well) were plated in 6-well plates and cultured overnight. Following 24 h treatment with specified concentrations of 9e, cells were harvested and analyzed by Annexin V-FITC apoptosis detection kit (Beyotime, Shanghai, China). Cell populations were subsequently analyzed by flow cytometry (Beckman, Brea, CA, USA).
(In general: A flow cytometer gives signals particle by particle.)

The test system of the next data set is P-gp in MCF-7/ADR. Kind of data set: Rh-123 accumulation assay (flow cytometry). In kind it is cell-based, human. As to conditions: 9e 20 nM, vs DMSO. As for the experimental part: Harvest the MCF-7/ADR cells and seed them into a 96-well plate (2 × 10^5 cells/well). Following overnight culture, cells were treated with 9e (10 and 20 nM) or DMSO (vehicle control) for 60 min. After aspiration of the medium, cells were washed thrice with PBS and subsequently incubated with Rh123 solution (1 μg/mL; Sigma-Aldrich) for 60 min. Subsequently, wash three times with PBS, then digest and centrifuge them (1000× g, 5 min). Resuspend the cells with 1 mL of PBS and centrifuge again (1000× g, 5 min). Finally, after resuspending the cells with 200 μL of PBS, the fluorescence of Rh123 was analyzed by flow cytometry (Beckman, Brea, CA, USA).

Structures are written as SMILES.

On to `COc1ccc(CCC(=O)c2ccc(OCCOc3no[n+]([O-])c3S(=O)(=O)c3ccccc3)cc2OC)cc1` [Compound 9e, 4-(2-(3-methoxy-4-(3-(4-methoxyphenyl)propanoyl)phenoxy)ethoxy)-3-(phenylsulfonyl)-1,2,5-oxadiazole 2-oxide], for which the “expression of GPX4” value in the data set on GPX4 in MCF-7/ADR was “clearly decreased”. Besides, in the data set with LC3 in MCF-7/ADR, the “fluorescence intensity of LC3” value is on record as “significantly increased”. Besides, the “cell survival probability in HUVEC” value in data set [1] is “over 90%”. The “apoptosis (Q2+Q3)” value in the data set on MCF-7/ADR is 37.1%. Moreover, the “Rh-123 accumulation (in words)” value in the data set with P-gp in MCF-7/ADR is “accumulated significantly”.

The values above are taken from publication PMC12156367, “Synthesis and Biological Evaluation of Seco-Coumarin/Furoxan Hybrids as Potent Anti-Tumor Agents to Overcome Multidrug Resistance via Multiple Mechanisms” (Molecules, 2025).
